In the NIST ThermoML archive (doi:10.1016/j.jct.2004.10.011):

Assay: xn = mol fraction of the nth substance listed
Conditions: 308.15 K, Liquid, Vibrating tube method

CCC(=O)c1ccccc1 [ethyl phenyl ketone] + Cc1ccccc1
mass density [kg/m3]
Conditions | x2 = 0 | x2 = 0.1048 | x2 = 0.2025 | x2 = 0.3006 | x2 = 0.3991 | x2 = 0.4998 | x2 = 0.6004 | x2 = 0.7036 | x2 = 0.8028 | x2 = 0.902
100 kPa | 996.8 | 984.8 | 973.6 | 961.5 | 948.7 | 934.98 | 920.13 | 904.3 | 888.2 | 871
2130 kPa | 998 | 986 | 974.8 | 962.8 | 950 | 936.3 | 921.52 | 905.8 | 889.7 | 872.5
4150 kPa | 999.2 | 987.3 | 976.1 | 964.1 | 951.3 | 937.68 | 922.91 | 907.2 | 891.1 | 874.1
6180 kPa | 1000.4 | 988.5 | 977.3 | 965.3 | 952.6 | 939.04 | 924.29 | 908.7 | 892.6 | 875.6
8210 kPa | 1001.6 | 989.7 | 978.5 | 966.6 | 953.9 | 940.34 | 925.65 | 910.1 | 894 | 877.1
10230 kPa | 1002.8 | 990.9 | 979.8 | 967.8 | 955.2 | 941.64 | 927 | 911.4 | 895.5 | 878.6
11250 kPa | 1003.4 | 991.5 | 980.4 | 968.4 | 955.7 | 942.3 | 927.66 | 912.1 | 896.2 | 879.3
12260 kPa | 1003.9 | 992.1 | 981 | 969 | 956.4 | 942.94 | 928.33 | 912.8 | 896.9 | 880
14290 kPa | 1005.1 | 993.3 | 982.2 | 970.3 | 957.6 | 944.22 | 929.64 | 914.1 | 898.3 | 881.5
16310 kPa | 1006.2 | 994.4 | 983.3 | 971.4 | 958.9 | 945.46 | 930.91 | 915.4 | 899.6 | 882.9
18340 kPa | 1007.3 | 995.5 | 984.5 | 972.6 | 960 | 946.72 | 932.19 | 916.8 | 901 | 884.3
20370 kPa | 1008.4 | 996.7 | 985.6 | 973.8 | 961.2 | 947.92 | 933.45 | 918 | 902.3 | 885.6
22390 kPa | 1009.5 | 997.8 | 986.7 | 974.9 | 962.4 | 949.14 | 934.71 | 919.3 | 903.6 | 887
24420 kPa | 1010.6 | 998.9 | 987.8 | 976 | 963.6 | 950.33 | 935.93 | 920.6 | 904.9 | 888.3
26450 kPa | 1011.7 | 1000 | 988.9 | 977.2 | 964.7 | 951.5 | 937.14 | 921.8 | 906.2 | 889.7
28470 kPa | 1012.8 | 1001 | 990 | 978.3 | 965.9 | 952.65 | 938.32 | 923 | 907.4 | 891
29490 kPa | 1013.2 | 1001.6 | 990.6 | 978.8 | 966.4 | 953.24 | 938.92 | 923.6 | 908 | 891.6
30500 kPa | 1013.8 | 1002.1 | 991.1 | 979.4 | 967 | 953.82 | 939.51 | 924.2 | 908.7 | 892.2
32530 kPa | 1014.8 | 1003.2 | 992.2 | 980.5 | 968.1 | 954.96 | 940.68 | 925.4 | 909.9 | 893.5
34550 kPa | 1015.8 | 1004.2 | 993.2 | 981.5 | 969.2 | 956.07 | 941.83 | 926.6 | 911.1 | 894.7
36580 kPa | 1016.8 | 1005.2 | 994.3 | 982.6 | 970.2 | 957.16 | 942.97 | 927.7 | 912.3 | 896
38600 kPa | 1017.9 | 1006.2 | 995.3 | 983.6 | 971.3 | 958.24 | 944.07 | 928.9 | 913.4 | 897.2
39620 kPa | 1018.3 | 1006.7 | 995.8 | 984.1 | 971.9 | 958.83 | 944.64 | 929.5 | 914 | 897.8
